Data published in patent US9650399B2, “Salicylic acid derivatives, pharmaceutically acceptable salt thereof, composition thereof and method of use thereof” (The Governing Council of the University of Toronto, priority 2012, dated 2017).
Read-outs that look alike come from different tables or passages of the source. Values belong to the compound of their own block, whether it stands above or below them.

Key:
[1] = tested on: BTSCs; assay: alamarBlue cytotoxicity across BTSC lines; format: cell-based, human
Method: (§1) First, the library was screened for biological activity against a set of three representative GBM BTSCs derived from GBM patients, including the very aggressive GBM BTSC lines, BTSC73M, BTSC30M, BTSC68EF. Dissociated BTSC spheres were seeded at 1500 cells/96-well and treated with drug compound or vehicle (DMSO) one day after plating. Cell viability following drug treatment was assessed after 72 hrs using the ALAMARBLUE™ assay (Invitrogen) according to the manufacturer's instructions. All culture experiments were performed in triplicate with a minimum of three wells per condition.
(§2) BTSC spheres were dissociated to single cells with the enzyme Accumax (Innovative Technologies), seeded at 1500 cells/96-well and treated with drug or vehicle (DMSO) one day after plating. […] BTSC spheres were dissociated to single cells as above and plated in 96 well plates in triplicate at 3000 cells/96-well. […] Cell viability following drug treatment was assessed three days later using the ALAMARBLUE™ assay (Invitrogen) according to the manufacturer's instructions. All culture experiments were performed in triplicate with a minimum of three wells per condition.

[2] = tested on: 147EF; assay: alamarBlue cell viability, BTSC 147EF; format: cell-based, human; conditions: Table 4 library screen; for IC50: Homo sapiens
From the text: BTSC spheres were dissociated to single cells with the enzyme Accumax (Innovative Technologies), seeded at 1500 cells/96-well and treated with drug or vehicle (DMSO) one day after plating. Cytotoxicity studies were repeated independently at Sickkids Hospital using BTSC lines 25M, 67EF, 73EF, 84EF and 127EF. BTSC spheres were dissociated to single cells as above and plated in 96 well plates in triplicate at 3000 cells/96-well. In both sets of experiments drugs were used as serial dilutions within the range of 5 μM to 100 nM in the first set and 25 μM to 10 nM. Cell viability following drug treatment was assessed three days later using the ALAMARBLUE™ assay (Invitrogen) according to the manufacturer's instructions. All culture experiments were performed in triplicate with a minimum of three wells per condition. Table 4 below illustrates a screen of the library against a number of BTSCs using ALAMARBLUE™ assay.

[3] = tested on: BTSC30M; assay: alamarBlue cell viability, BTSC 30M; format: cell-based, human; conditions: for IC50: Homo sapiens
Method: as §1, §2

[4] = tested on: BTSC73M; assay: alamarBlue cell viability, BTSC 73M; format: cell-based, human; conditions: alamarBlue; for IC50: Homo sapiens
Method: as §1, §2

[5] = tested on: BTSC68EF; assay: alamarBlue cell viability, BTSC 68EF; format: cell-based, human; conditions: Table 4 library screen, alamarBlue; for IC50: Homo sapiens, read-out: 68EF IC50
Method: as §1, §2

[6] = tested on: leukemia cancer cells (AML-2); assay: IC50 in leukemia cancer cells; format: cell-based; conditions: Table 6
[7] = tested on: Breast cancer cells (MDA-MB-468); assay: IC50 in breast cancer cells; format: cell-based; conditions: Homo sapiens, Table 6
[8] = tested on: Prostate (DU145); assay: IC50 in prostate cancer cells; format: cell-based; conditions: Homo sapiens, DU-145; Table 6
[9] = tested on: patient-derived pancreatic cancer line (Panc10.05); assay: MTS cell survival, pancreatic cancer line; format: cell-based; conditions: Homo sapiens, Panc1005, Panc10.05, 72 h, read-out: ED50 (IC50)
Method: Low passage patient-derived pancreatic cancer line (Panc10.05) was plated in 96-well plates (3×10^3 per well) and allowed to attach overnight. STAT3 inhibitors 31, 41, 42 and 38 were added at indicated concentrations. Cell survival was measured 72 h after drug addition with the MTS assay.

[10] = target: T1, c-Src (Homo sapiens, UniProt P12931); assay: HotSpot radiometric kinase assay, c-Src; format: biochemical; conditions: 5 uM compound, 10 μM ATP, duplicate (Data 1, Data 2)
T1 construct: purchased Reaction Biology Corporation
Method: (§3) Briefly, this assay employs a radiometric detection system to measure kinase phosphoryl transfer activity.
(§4) Test compound was evaluated at a single dose of 5 μM in duplicate mode. […] Reactions were carried out at 10 μM ATP.
(§5) Preliminary screen against AKT, c-Src, ERK1, JaK1 and JaK2 was performed at Reaction Biology Corporation (www.reactionbiology.com, Malvern, Pa.) using the “HotSpot” assay platform. Specific kinase/substrate pairs along with their required cofactors were prepared in reaction buffer; 20 mM Hepes pH 7.5, 10 mM MgCl2, 1 mM EGTA, 0.02% Brij35, 0.02 mg/ml BSA, 0.1 mM Na3VO4, 2 mM DTT, 1% DMSO. The screen was completed in duplicate at a single concentration of 5 μM. The reaction well with the subject compound was treated with a mixture of ATP (Sigma, St. Louis Mo.) and ^33P ATP (Perkin Elmer, Waltham Mass.) to a final concentration of 10 μM. […] Reaction wells were kept at room temperature for 120 minutes, followed by spotting each of the reactions onto P81 ion exchange filter paper (Whatman Inc., Piscataway, N.J.). […] Background was subtracted using control reactions and the kinase activity data was expressed as the percent remaining kinase activity in test samples compared to vehicle (dimethyl sulfoxide) reactions. All IC50 values (table 3) and curve fitting were produced using Prism (GraphPad Software) (FIG. 5).

[11] = target: T2, ERK1 (Homo sapiens, UniProt P27361); assay: HotSpot radiometric kinase assay, ERK1; format: biochemical; conditions: 5 uM compound, 10 μM ATP, duplicate (Data 1, Data 2)
T2 construct: purchased Reaction Biology Corporation

[12] = target: T3, JAK2 (Homo sapiens, UniProt O60674); assay: HotSpot radiometric kinase assay, JAK2; format: biochemical; conditions: 5 uM compound, 10 μM ATP, duplicate (Data 1, Data 2)
T3 construct: purchased Reaction Biology Corporation
Method: as §3, §4, §5

[13] = target: T4, AKT1 (Homo sapiens, UniProt P31749); assay: HotSpot radiometric kinase assay, AKT1; format: biochemical; conditions: 5 uM compound, 10 μM ATP, duplicate (Data 1, Data 2)
T4 construct: purchased Reaction Biology Corporation

[14] = target: T5, JAK1 (Homo sapiens, UniProt P23458); assay: HotSpot radiometric kinase assay, JAK1; format: biochemical; conditions: 5 uM compound, 10 μM ATP, duplicate (Data 1, Data 2)
T5 construct: purchased Reaction Biology Corporation
Method: as §3, §4, §5

[15] = tested on: pSTAT3 (Y705); assay: Western blot of phosphorylated STAT3 in BTSCs; format: cell-based, human; conditions: BTSC 73M, 1 μM inhibitor
From the text: Blots were stained with antibodies: phospho-Y705, phospho-S727, Bcl-xL, cyclin D1, PARP and Actin. Bands were visualized with the ECL PLUS™ Western Blotting Detection System and […]™ (Amersham). […] BTSC spheres were lysed in modified RIPA buffer supplemented with Complete Mini protease (Roche) and Halt phosphatase (Thermo Scientific) inhibitor cocktails. […] Blots were stained with the following antibodies: phospho-STAT3 Y705 (1:1000, Cell Signalling Technology), phospho-STAT3 S727 (1:1000, Cell Signalling Technology), STAT3 (1:1000, Santa Cruz Biotechnology), Bcl-xL (1:1000, Cell Signalling Technology), cyclin D1 (1:1000, Cell Signalling Technology) PARP (1:1000, Cell Signalling Technology) and Actin (1:2500, Santa Cruz Biotechnology). HRP conjugated secondary antibodies, goat anti-rabbit (Cell Signalling Technology) were used at 1:2000 and donkey anti-mouse, donkey anti-goat, and goat anti-rabbit, (Calbiochem) were used at 1:6000. Bands were visualized with the ECL Plus Western Blotting Detection System and Hyperfilm (Amersham).

[16] = Table 4 library screen, alamarBlue
[17] = read-out: IC50 BTSC 30M, Table 6, in parallel with other cancer lines
[18] = Table 4 library screen, read-out: 73M IC50

T5 sequence (P23458 whole entry): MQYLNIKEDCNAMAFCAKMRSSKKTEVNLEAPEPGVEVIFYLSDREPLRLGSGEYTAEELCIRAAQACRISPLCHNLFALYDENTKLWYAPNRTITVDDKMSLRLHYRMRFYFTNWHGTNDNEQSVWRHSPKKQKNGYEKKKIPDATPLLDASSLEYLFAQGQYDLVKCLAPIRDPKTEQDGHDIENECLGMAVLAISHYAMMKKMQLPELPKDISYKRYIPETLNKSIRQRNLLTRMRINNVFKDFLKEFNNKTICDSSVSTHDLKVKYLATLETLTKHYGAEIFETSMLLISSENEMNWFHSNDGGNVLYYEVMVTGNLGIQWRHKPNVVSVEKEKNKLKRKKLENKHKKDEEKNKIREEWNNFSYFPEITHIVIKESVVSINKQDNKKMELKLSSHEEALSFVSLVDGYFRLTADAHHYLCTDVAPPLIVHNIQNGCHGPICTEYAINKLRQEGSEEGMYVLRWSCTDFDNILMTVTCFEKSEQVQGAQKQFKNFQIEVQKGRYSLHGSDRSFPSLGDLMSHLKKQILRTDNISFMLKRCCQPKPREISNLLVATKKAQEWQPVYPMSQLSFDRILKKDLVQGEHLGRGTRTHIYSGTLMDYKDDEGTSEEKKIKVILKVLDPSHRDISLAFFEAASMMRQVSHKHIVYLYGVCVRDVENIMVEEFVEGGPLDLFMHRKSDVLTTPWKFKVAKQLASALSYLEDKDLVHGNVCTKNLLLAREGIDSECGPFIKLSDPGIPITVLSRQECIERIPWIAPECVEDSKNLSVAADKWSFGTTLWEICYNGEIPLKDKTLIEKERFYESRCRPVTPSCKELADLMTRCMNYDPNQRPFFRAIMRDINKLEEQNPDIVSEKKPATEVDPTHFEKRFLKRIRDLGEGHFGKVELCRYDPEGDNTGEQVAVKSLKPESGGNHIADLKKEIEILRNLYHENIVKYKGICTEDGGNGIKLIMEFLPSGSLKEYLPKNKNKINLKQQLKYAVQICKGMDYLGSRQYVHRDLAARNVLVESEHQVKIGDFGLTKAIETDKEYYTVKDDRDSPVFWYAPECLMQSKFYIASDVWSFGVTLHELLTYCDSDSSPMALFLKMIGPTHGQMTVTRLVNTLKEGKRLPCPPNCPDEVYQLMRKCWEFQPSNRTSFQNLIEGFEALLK
T2 sequence (P27361 whole entry): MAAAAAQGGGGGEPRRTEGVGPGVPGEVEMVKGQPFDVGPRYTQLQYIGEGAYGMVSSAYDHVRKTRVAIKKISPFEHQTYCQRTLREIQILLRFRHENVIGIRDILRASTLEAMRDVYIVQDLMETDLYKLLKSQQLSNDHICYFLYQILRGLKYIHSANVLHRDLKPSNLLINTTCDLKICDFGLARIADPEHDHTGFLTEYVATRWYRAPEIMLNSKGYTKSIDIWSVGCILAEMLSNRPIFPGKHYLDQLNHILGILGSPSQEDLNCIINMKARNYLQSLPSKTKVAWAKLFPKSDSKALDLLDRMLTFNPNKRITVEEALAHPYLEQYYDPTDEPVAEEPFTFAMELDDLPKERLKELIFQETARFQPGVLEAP
T3 sequence (O60674 whole entry): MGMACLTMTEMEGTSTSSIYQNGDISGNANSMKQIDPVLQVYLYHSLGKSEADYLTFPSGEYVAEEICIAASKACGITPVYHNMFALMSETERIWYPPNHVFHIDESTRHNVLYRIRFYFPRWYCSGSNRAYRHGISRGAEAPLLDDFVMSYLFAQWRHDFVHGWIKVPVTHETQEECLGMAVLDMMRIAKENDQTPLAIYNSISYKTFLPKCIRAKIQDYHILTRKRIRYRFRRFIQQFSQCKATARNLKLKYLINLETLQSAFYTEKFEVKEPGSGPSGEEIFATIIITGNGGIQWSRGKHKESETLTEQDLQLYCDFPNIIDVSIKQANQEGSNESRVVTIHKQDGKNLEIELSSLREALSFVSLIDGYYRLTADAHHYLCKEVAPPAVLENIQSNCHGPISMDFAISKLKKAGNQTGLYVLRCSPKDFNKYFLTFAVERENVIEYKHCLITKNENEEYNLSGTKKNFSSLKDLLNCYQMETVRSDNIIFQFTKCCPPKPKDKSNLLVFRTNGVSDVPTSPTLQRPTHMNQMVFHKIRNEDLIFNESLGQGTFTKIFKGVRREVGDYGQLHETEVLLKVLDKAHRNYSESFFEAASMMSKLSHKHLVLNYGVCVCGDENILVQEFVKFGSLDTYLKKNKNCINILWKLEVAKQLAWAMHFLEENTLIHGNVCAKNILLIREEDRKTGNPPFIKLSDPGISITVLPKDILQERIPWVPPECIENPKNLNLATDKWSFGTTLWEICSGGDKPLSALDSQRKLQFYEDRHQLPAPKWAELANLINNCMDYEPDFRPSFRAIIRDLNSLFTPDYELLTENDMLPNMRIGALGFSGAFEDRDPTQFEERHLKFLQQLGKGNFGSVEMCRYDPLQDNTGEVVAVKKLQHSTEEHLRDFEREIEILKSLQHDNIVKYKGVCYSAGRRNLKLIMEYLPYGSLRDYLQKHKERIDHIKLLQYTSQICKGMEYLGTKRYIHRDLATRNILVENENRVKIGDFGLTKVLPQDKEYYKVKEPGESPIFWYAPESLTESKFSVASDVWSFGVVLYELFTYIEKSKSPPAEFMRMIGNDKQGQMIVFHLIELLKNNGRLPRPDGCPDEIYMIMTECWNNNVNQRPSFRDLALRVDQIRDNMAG
T1 sequence (P12931 whole entry): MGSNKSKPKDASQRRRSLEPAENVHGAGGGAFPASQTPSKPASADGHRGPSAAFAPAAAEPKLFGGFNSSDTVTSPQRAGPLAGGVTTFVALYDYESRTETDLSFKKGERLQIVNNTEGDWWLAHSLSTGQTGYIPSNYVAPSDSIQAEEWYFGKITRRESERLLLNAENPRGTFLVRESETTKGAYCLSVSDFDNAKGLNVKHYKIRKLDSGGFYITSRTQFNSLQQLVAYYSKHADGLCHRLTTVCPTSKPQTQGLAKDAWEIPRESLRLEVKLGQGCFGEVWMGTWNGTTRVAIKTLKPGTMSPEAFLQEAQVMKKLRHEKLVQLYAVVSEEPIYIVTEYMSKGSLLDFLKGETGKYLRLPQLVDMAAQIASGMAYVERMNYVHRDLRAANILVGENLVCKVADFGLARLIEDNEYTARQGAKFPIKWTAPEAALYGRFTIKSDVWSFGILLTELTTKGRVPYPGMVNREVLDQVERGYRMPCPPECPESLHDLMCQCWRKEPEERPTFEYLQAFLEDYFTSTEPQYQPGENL
T4 sequence (P31749 whole entry): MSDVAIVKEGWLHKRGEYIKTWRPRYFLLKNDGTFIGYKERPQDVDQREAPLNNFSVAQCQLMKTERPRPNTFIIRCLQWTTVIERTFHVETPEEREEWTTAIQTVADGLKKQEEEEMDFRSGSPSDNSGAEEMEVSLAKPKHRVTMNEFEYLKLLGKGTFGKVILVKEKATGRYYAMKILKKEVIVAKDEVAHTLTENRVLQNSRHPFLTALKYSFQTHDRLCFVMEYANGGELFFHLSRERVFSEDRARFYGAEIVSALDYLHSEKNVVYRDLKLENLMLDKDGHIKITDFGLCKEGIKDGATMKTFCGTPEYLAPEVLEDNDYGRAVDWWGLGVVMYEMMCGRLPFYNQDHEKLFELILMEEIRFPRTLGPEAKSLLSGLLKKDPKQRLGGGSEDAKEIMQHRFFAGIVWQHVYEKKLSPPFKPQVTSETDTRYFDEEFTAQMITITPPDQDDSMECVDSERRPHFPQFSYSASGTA

Structure (SMILES): CN(CC(=O)N(Cc1ccc(C2CCCCC2)cc1)c1ccc(C(=O)O)c(O)c1)S(=O)(=O)c1c(F)c(F)c(F)c(F)c1F [Compound 1, reference compound]
activity against BTSCs (in words) ([1]; cytotoxicity, alamarBlue): low μM activity

Structure (SMILES): Cc1ccc(S(=O)(=O)N(C)CC(=O)N(Cc2ccc(C3CCCCC3)cc2)c2ccc(N)cc2)cc1 [Compound 11, N-(4-aminophenyl)-N-(4-cyclohexylbenzyl)-2-(N,4-dimethylphenylsulfonamido)acetamide]
147EF IC50 (μM) [2]: no effect
30M IC50 (μM) [3, 16]: no effect
73M IC50 (μM) ([4]; Table 4 library screen): no effect
68EF IC50 (μM) [5]: no effect

Structure (SMILES): CC(=O)Oc1cc(N(Cc2ccc(C3CCCCC3)cc2)C(=O)CN(C)S(=O)(=O)c2ccc(C)cc2)ccc1C(=O)O [Compound 23, 2-acetoxy-4-(N-(4-cyclohexylbenzyl)-2-(N,4-dimethylphenylsulfonamido)acetamido)benzoic acid]
147EF IC50 (μM) [2]: no effect
30M IC50 (μM) [3, 16]: no effect
73M IC50 (μM) ([4]; Table 4 library screen): no effect
68EF IC50 (μM) [5]: no effect

IC50 [6]: < 1000 nM
IC50 [7]: < 1000 nM
IC50 [8]: 14200 nM
Structure (SMILES): CN(CC(=O)N(Cc1ccc(C2CCCCC2)cc1)c1ccc(C(=O)O)c(F)c1)S(=O)(=O)c1c(F)c(F)c(F)c(F)c1F [Compound 33, 4-(N-(4-cyclohexylbenzyl)-2-(2,3,4,5,6-pentafluoro-N-methylphenylsulfonamido)acetamido)-2-fluorobenzoic acid]
IC50 [2]: 935 nM
IC50 ([3]; read-out: 30M IC50 (μM), Table 4 library screen, alamarBlue): 0.724 µM
IC50 ([3]; read-out: IC50 (nM) in BTSC 30M): 0.724 ± 0.013 µM
IC50 [3, 17]: 0.689 µM
EC50 ([1]; Homo sapiens, collective range over 8 BTSC lines, read-out: EC50s across all 8 BTSCs evaluated): 66 to 1140 nM
IC50 ([1]; Homo sapiens, collective range, units given in the value, read-out: IC50 values of the top four ranked compounds against BTSCs): 100 to 3800 nM
IC50 [4, 18]: 1.23 µM
IC50 [5]: 1460 nM

Structure (SMILES): CN(CC(=O)N(Cc1ccc(C2CCCCC2)cc1)c1ccc(NC(=O)Cc2nnn[nH]2)cc1)S(=O)(=O)c1c(F)c(F)c(F)c(F)c1F [Compound 41, N-(4-(2-(1H-tetrazol-5-yl)acetamido)phenyl)-N-(4-cyclohexylbenzyl)-2-(2,3,4,5,6-pentafluoro-N-methylphenylsulfonamido)acetamide]
IC50 [4, 18]: 3.5 µM
IC50 [9]: 16400 nM

Structure (SMILES): Cc1ccc(S(=O)(=O)N(C)CC(=O)N(Cc2ccc(C3CCCCC3)cc2)c2ccc(C(=O)O)c(F)c2)cc1 [Compound 43, 4-(N-(4-cyclohexylbenzyl)-2-(N,4-dimethylphenylsulfonamido)acetamido)-2-fluorobenzoic acid]
147EF IC50 (μM) [2]: no effect
30M IC50 (μM) [3, 16]: no effect
73M IC50 (μM) ([4]; Table 4 library screen): no effect
68EF IC50 (μM) [5]: no effect

Structure (SMILES): Cc1ccc(S(=O)(=O)N(C)CC(=O)N(Cc2ccc(C3CCCCC3)cc2)c2ccc(C(=O)NO)cc2)cc1 [Compound 44, 4-(N-(4-cyclohexylbenzyl)-2-(N,4-dimethylphenylsulfonamido)acetamido)-N-hydroxybenzamide]
IC50 [2]: 2450 nM
30M IC50 (μM) [3, 16]: no effect
73M IC50 (μM) ([4]; Table 4 library screen): no effect
IC50 [5]: 1740 nM

Structure (SMILES): Cc1ccc(S(=O)(=O)N(C)CC(=O)N(Cc2ccc(C3CCCCC3)cc2)c2ccc(O)cc2)cc1 [Compound 45, N-(4-cyclohexylbenzyl)-2-(N,4-dimethylphenylsulfonamido)-N-(4-hydroxyphenyl)acetamide]
147EF IC50 (μM) [2]: no effect
30M IC50 (μM) [3, 16]: no effect
73M IC50 (μM) ([4]; Table 4 library screen): no effect
68EF IC50 (μM) [5]: no effect

Structure (SMILES): CC(=O)Oc1cc(N(Cc2ccc(C3CCCCC3)cc2)C(=O)CN(C)S(=O)(=O)c2c(F)c(F)c(F)c(F)c2F)ccc1C(=O)O [SH-04-08, 2-acetoxy-4-(N-(4-cyclohexylbenzyl)-2-(2,3,4,5,6-pentafluoro-N-methylphenylsulfonamido)acetamido)benzoic acid]
IC50 [3, 17]: 0.9 µM
IC50 [6]: < 1000 nM
IC50 [7]: < 1000 nM
IC50 [8]: 12000 nM

Structure (SMILES): CC(=O)Oc1cc(N(Cc2ccc(C3CCCCC3)cc2)C(=O)CN(C)S(=O)(=O)c2ccc(C)cc2)ccc1C(=O)O [SH-05-19, 2-acetoxy-4-(N-(4-cyclohexylbenzyl)-2-(N,4-dimethylphenylsulfonamido)acetamido)benzoic acid]
remaining activity at 5 µM ([10]; read-out: % Enzyme activity relative to DMSO (control), c-Src): 41.6%
% Enzyme activity relative to DMSO (control), c-Src ([10]; remaining activity): 39.16%
IC50 [3, 17]: 0.505 µM
remaining activity at 5 µM ([11]; read-out: % Enzyme activity relative to DMSO (control), ERK1): 119%
% Enzyme activity relative to DMSO (control), ERK1 ([11]; remaining activity): 126.49%
remaining activity at 5 µM ([12]; read-out: % Enzyme activity relative to DMSO (control), JAK2): 46.1%
% Enzyme activity relative to DMSO (control), JAK2 ([12]; remaining activity): 47.70%
IC50 [6]: < 1000 nM
IC50 [7]: < 1000 nM
IC50 [8]: 9800 nM
remaining activity at 5 µM ([13]; read-out: % Enzyme activity relative to DMSO (control), AKT1): 90.6%
% Enzyme activity relative to DMSO (control), AKT1 ([13]; remaining activity): 87.91%
remaining activity at 5 µM ([14]; read-out: % Enzyme activity relative to DMSO (control), JAK1): 98.3%
% Enzyme activity relative to DMSO (control), JAK1 ([14]; remaining activity): 97.79%

Structure (SMILES): C[C@H](NC(=O)/C(C#N)=C/c1cccc(Br)n1)c1ccccc1 [WP1066, reference compound]
IC50 ([3]; read-out: IC50 (μM) 30M, Table 2, BTSC 30M, alamarBlue, 72 hrs): 1.8 ± 0.22 µM
IC50 ([4]; Table 2, BTSC 73M, 72 hrs, read-out: IC50 (μM) 73M): 2.1 µM
pSTAT3 suppression, comparative Western blot [15]: equipotent pSTAT3 suppression
